Experimental data reported in US9873693B2 (Sunesis Pharmaceuticals, Inc., priority 2006, dated 2018).
Where two headings read alike, the source gives them in different places.

Columns and labels:
phosphorylated PDK1 = phosphorylated PDK1 (Homo sapiens (Human), UniProt O15530); experiment: PDK1 kinase assay (coupled PDK1/AKT/FAM-crosstide, IMAP); assay type: biochemical; settings: 0.5 nM phosphorylated PDK1, 24 μM ATP; read-out: Inhibition of phospo-PDK1 in vitro IC50
phospho-akt (Thr308) = phospho-akt (Thr308) MSD ELISA in PC-3 cells; assay type: cell-based; settings: Homo sapiens; for EC50: PC-3, 2 h; for inhibition at 1 µM / inhibition at 10 µM: read-out: Percent Inhibition of phospho-Akt (308) By MSD ELISA
Outline: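 Read-out is MSD electrochemiluminescence after lysate capture overnight at 4 degrees and 1 hr RT detection-antibody step. Before lysis, overnight-plated PC-3 cells received three-fold serial dilutions of inhibitor in serum-free medium, with DMSO-only high controls.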

dephosphorylated PDK1 = dephosphorylated PDK1 (Homo sapiens (Human), UniProt O15530); experiment: PDK1 kinase assay (coupled PDK1/AKT/FAM-crosstide, IMAP); assay type: biochemical; settings: 25 nM un-phosphorylated PDK1, 24 μM ATP; read-out: Inhibition of dephospo-PDK1 in vitro IC50
dephosphorylated PDK1, sequence (O15530 51-360): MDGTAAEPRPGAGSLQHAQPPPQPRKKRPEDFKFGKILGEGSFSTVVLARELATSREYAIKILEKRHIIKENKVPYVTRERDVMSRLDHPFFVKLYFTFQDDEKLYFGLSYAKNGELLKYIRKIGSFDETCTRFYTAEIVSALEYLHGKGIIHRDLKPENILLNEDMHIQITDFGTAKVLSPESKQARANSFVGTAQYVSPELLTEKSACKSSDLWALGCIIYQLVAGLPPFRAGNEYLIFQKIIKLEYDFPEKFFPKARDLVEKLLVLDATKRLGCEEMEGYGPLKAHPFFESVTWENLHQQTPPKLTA
Procedure: A PDK1 kinase assay was performed as follows. PDK1 (amino acids 51-360) and AKT2 (amino acids 140-467 fused to PIFtide, amino acids […]) were expressed as N-terminally tagged GST fusion proteins in insect cells and purified to greater than 90% homogeneity. PDK1 protein was divided into two fractions, one of which was subsequently dephosphorylated. To generate dephosphorylated PDK1, the PDK1 was reacted with GST-tagged lambda-phosphatase in vitro. GST was subsequently cleaved proteolytically for both phosphorylated and dephosphorylated PDK1. Protein preparations were run on glutathione Sepharose columns to remove GST and GST-tagged lambda-phosphatase, if present. Phosphorylated PDK1 and dephosphorylated PDK1 were verified by mass-spectrometry. Enzyme activity was determined in a coupled PDK1/AKT/FAM-crosstide assay using either phosphorylated or unphosphorylated PDK1 and phosphorylation of FAM-crosstide was determined by standard IMAP protocol (Molecular Devices). For inhibition studies, compounds were titrated 3-fold in DMSO and diluted 40-fold into assay buffer (10 mM Tris HCl pH7.2; 10 mM MgCl2; 0.01% Triton X-100; 1 mM DTT) containing PDK1, AKT2, and FAM-crosstide. (final concentrations: 25 nM un-phosphorylated PDK1 or 0.5 nM phosphorylated PDK1, 30 nM unphosphorylated AKT2, and 100 nM crosstide substrate). The kinase reaction was initiated by adding ATP to a final concentration of 24 μM for both forms of PDK1 and incubated at 25° C. for 30 min. To detect assay product, the kinase reaction was combined with Progressive Binding Solution (1:600 Progressive Binding Reagent, 50% Buffer A, 50% Buffer B, Molecular Devices) in a 1:3 ratio. The mixture was incubated for 2 hours at 25° C. and the plate was scanned on an Analyst AD with excitation at 485 nm and emission at 530 nm. The fluorescence polarization value “P” is defined by the equation below. The value “mP” is generated by multiplying the P value for each reaction well by a factor of 1000. The value “ΔmP” for each well is the mP value for that well minus the mP value for the average negative control. P=(Fpar−Fperp)/(Fpar+Fperp) Eq.:
Where “par” is fluorescence intensity parallel to the excitation plane; and “perp” is fluorescence intensity perpendicular to the excitation plane. ΔmP values were plotted as a function of compound concentration and the data were analyzed with a 4-parameter fit using GraphPad Prism software.

[1] = PC-3 cells, 2 hours, no serum, read-out: Inhibition of P308 Akt in cells using MSD EC50
[2] = PC-3 cells, 2 hours, no serum, read-out: Reduction of Cellular Levels of Akt p308 By MSD ELISA (EC50 μM)

phosphorylated PDK1, sequence (O15530 51-360): as above

SMILES	IC50 (phosphorylated PDK1) [µM]	EC50 (phospho-akt (Thr308); [1]) [µM]	IC50 (dephosphorylated PDK1) [µM]	EC50 (phospho-akt (Thr308); read-out: Inhibition of P308 Akt in cells using MSD EC50) [µM]	EC50 (phospho-akt (Thr308); [2]) [µM]	inhibition at 1 µM (phospho-akt (Thr308); PC-3 cells) [%]	inhibition at 10 µM (phospho-akt (Thr308); PC-3 cells) [%]
COC(=O)c1cc(-c2c[nH]c3ncccc23)cc(CNC(=O)c2cccn(Cc3ccc(F)c(F)c3)c2=O)n1 [Cpd 175]	< 0.5	< 1	< 0.5	–	–	–	–
O=C(NCCOc1ccc2cc[nH]c2c1)c1cccn(Cc2ccc(F)c(F)c2)c1=O [Cpd 179]	0.5 to 10	> 5	0.5 to 10	–	–	–	–
Nc1cc(C(=O)NCc2noc(-c3c[nH]c4ncccc34)n2)c(=O)n(Cc2cc(F)c(F)c(F)c2)c1 [Cpd 187]	< 0.5	> 5	< 0.5	–	–	–	–
O=C1Cc2ccc(/C=C/CNC(=O)c3cc(Cl)cn(Cc4cc(F)c(F)c(F)c4)c3=O)cc2N1 [Cpd 193]	< 0.5	–	< 0.5	> 5	–	–	–
CC1(C)C(=O)Nc2cc(/C=C/CNC(=O)c3cccn(Cc4cc(F)c(F)c(F)c4)c3=O)ccc21 [Cpd 206]	0.5 to 10	1 to 5	< 0.5	–	–	–	–
O=C(NCc1cccc(-c2ccc3[nH]ncc3c2)c1)c1cccn(Cc2ccc(F)c(F)c2)c1=O [Cpd 213]	< 0.5	–	< 0.5	–	1 to 5	–	–
O=C(NCc1cccc(-c2ccc(=O)[nH]c2)c1)c1cccn(Cc2ccc(F)c(F)c2)c1=O [Cpd 220]	0.5 to 10	–	0.5 to 10	–	–	25 to 75	25 to 75
O=C(c1cccn(Cc2ccc(F)c(F)c2)c1=O)N1CCc2ccc(-c3c[nH]c4ncccc34)cc2C1 [Cpd 232]	0.5 to 10	> 5	0.5 to 10	–	–	–	–
O=C(NCc1noc(-c2ccc3ncnn3c2)n1)c1cccn(Cc2ccc(F)c(F)c2)c1=O [Cpd 235]	0.5 to 10	–	< 0.5	–	> 5	–	–
COC(=O)C[C@@H](NC(=O)c1cccn(Cc2ccc(F)c(F)c2)c1=O)c1ccc(-c2c[nH]c3ncccc23)s1 [Cpd 236]	0.5 to 10	–	< 0.5	–	> 5	–	–
CN(C)C(=O)C[C@@H](NC(=O)c1cccn(Cc2ccc(F)c(F)c2)c1=O)c1ccc(-c2c[nH]c3ncccc23)s1 [Cpd 237]	< 0.5	> 5	< 0.5	–	–	< 25	25 to 75
O=C(NCc1cccc(-c2c[nH]c3cnccc23)c1)c1cccn(Cc2ccc(F)c(F)c2)c1=O [Cpd 242]	0.5 to 10	–	< 0.5	–	–	< 25	> 75
COc1ccnc(NCCC#CCCNC(=O)c2cccn(Cc3ccc(F)c(F)c3)c2=O)n1 [Cpd 263]	< 0.5	–	< 0.5	–	–	–	–
COc1ccnc(NCCCCCNC(=O)c2cccn(Cc3ccc(F)c(Cl)c3)c2=O)n1 [Cpd 266]	0.5 to 10	–	< 0.5	–	–	–	–
O=C(NCCCCc1c[nH]c2ncccc12)c1cccn(Cc2cc(F)c(F)c(F)c2)c1=O [Cpd 271]	< 0.5	–	< 0.5	–	–	–	–
O=C(NCc1nc(-c2c[nH]c3ncccc23)cs1)c1cccn(Cc2cccc(Cl)c2)c1=O [Cpd 272]	< 0.5	–	< 0.5	–	–	–	–
O=C(NCc1nc(-c2c[nH]c3ncccc23)cs1)c1cc(Cl)cn(Cc2ccc(Cl)cc2)c1=O [Cpd 273]	< 0.5	–	< 0.5	–	–	–	–
Cc1sc(CNC(=O)c2cccn(Cc3ccc(F)c(F)c3)c2=O)nc1-c1c[nH]c2ncccc12 [Cpd 275]	0.5 to 10	–	< 0.5	–	–	–	–
O=C(NCCOc1cc2[nH]c(=O)[nH]c2cn1)c1cccn(Cc2ccc(F)c(F)c2)c1=O [Cpd 279]	< 0.5	–	< 0.5	–	> 5	–	–
O=C(NC1(c2nnc(-c3c[nH]c4ncccc34)o2)CC1)c1cccn(Cc2ccc(F)c(F)c2)c1=O [Cpd 281]	< 0.5	–	< 0.5	–	–	–	–
